Each block holds one molecule with its values, some of them ahead of it.
Assays:
[1] = tested on: Gr-1+ granulocytes/monocytes; experiment: Flow cytometric oxidative burst (ROS) assay on peripheral blood ex vivo after Ptx; format: in vivo, mouse
Protocol: Flow Cytometric Oxidative Burst Assay: Peripheral blood was obtained by retro orbital bleeding; about 400 microL blood were collected into heparinized tubes. The respiratory burst assay was performed as described with modifications. Briefly, 100 microL blood aliquots were added to each tube, wash buffer or stimuli (opsonized E. coli, fMLP (N-formylmethionyl-leucyl-phenylalanine) were added at 20 microL. Tubes were incubated in a water bath at 37° C. for 10 mins, then 20 microL of dihydrorhodamine (DHR-123) was added and tubes were vortexed, and then incubated for another 10 mins. Red blood cells were lysed and removed after washing once. R-PE conjugated rat anti-mouse Ly-6G and Ly-6C (Gr-1, BD Biosciences) antibody was added in the presence of Mouse BD Fc Block (purified anti-mouse CD16/CD32 monoclonal antibody, 2.4G2, BD Biosciences) at 1 μg/million cells, and incubated at room temperature in the dark for 15 mins. Cells were washed; supernatants removed and 200 μL of DNA staining solution was added. The samples were analyzed by flow cytometer (FACSCalibur) using CellQuest. The initial gate was set with Gr-1 to identify granulocytes/monocytes; the percentage of responding cells was then analyzed with FlowJo software.
After brief exposure of whole blood to opsonized E. coli and the chemotactic peptide N-formyl-Met-Leu-Phe (fMLP) ex vivo, fluorescence of ROS positive cells was detected by the oxidation of the dihydrorhodamine substrate. Blood samples were collected from each group 4 days after the last dose of Ptx and again on post-day 11. […] Post-day 4 was 3 days after G-CSF injection for the Ptx+G-CSF group. The ROS responses of normal, untreated mice were also studied.

B6D2F1 mice [2] = experiment: Peripheral blood cell recovery (complete blood cell count) after Ptx treatment
Protocol: Mice: B6D2F1 mice female, 6-8 weeks old were purchased from Jackson Laboratory, and were maintained in a pathogen-free facility at Memorial Sloan-Kettering Cancer Center (MSKCC, New York, N.Y.) with access to fresh water and food ad libitum. Certified Rodent Diet #5053 (Lab Diet) was used. All animal experiments were approved by the MSKCC Animal Care Committee. Treatments: Ptx was intraperitoneally injected (i.p) at 30 mg/kg/day over […] with cumulative dose of 90-120 mg/kg to mice. Neupogen (G-CSF) was given i.v. at 80 microg/kg at 24 hrs after the last dose of Ptx. […] Mice were weighed each day. Blood was taken from the tail vein for complete blood cell (CBC) counts. Sacrifice was performed by the CO2 method.
Complete Blood Cell Count: Approximately 20 microL of blood was taken from the tail vein after warming, for assessment of CBC by automated differential analysis using the Hemavet instrument after instrument standardization.
Statistical Analysis: Data are presented as mean percentage ±SD or mean counts ±SD. To identify the appropriate dose of Ptx, ANCOVA was used to examine significance of variation in average cell counts or percentage of change from baseline across all days for the cell type of interest in a treatment group and possible within-mouse correlation was adjusted by including mouse ID as a covariate. If overall significance by ANCOVA was shown, Tukey's method was used to determine between-day significance. To assess significance of variation across dose groups (including untreated) over the treatment interval, two-way ANOVA was used and then Bonferroni method was used to adjust for between-group multiple comparisons. In the studies of blood cell recovery, the decrease in cell count was calculated as compared to the corresponding baseline during the treatment for each mouse. The averages of the group decreases across different treatment groups were compared using two-way ANOVA to determine significance. Two sample t-tests were used to compare the difference in average percentage change at a given time point between any two treatment groups. Tukey's or Bonferroni method was used to adjust p-values for multiple comparisons where appropriate. The analyses were carried out using GraphPad Prism software version 5.01. Additional information is provided in the text.
30 mg/kg/day Ptx was given over 3 consecutive days (90 mg/kg cumulative dose) to each group. […] The Ptx+G-CSF group received one dose of intravenous G-CSF (80 ug/kg), 24 hrs after the last Ptx dose. Changes in absolute numbers of leukocytes (white blood cell count) from baseline were evaluated from post-day 1 to post-day 8 after chemotherapy. For each mouse, percent change in counts from baseline was calculated. Change from baseline across days within a treatment group was assessed by ANCOVA and within-mouse correlation was included as appropriate. Paired t-tests were used to compare any two time-points. Differences among treatment groups across the experimental period were assessed by two-way

B6D2F1 mice [3] = experiment: Paclitaxel-induced leukopenic mouse model, serial complete blood counts; format: in vivo
Protocol: Certified Rodent Diet #5053 (Lab Diet) was used. […] Mice were weighed each day. […] Sacrifice was performed by the CO2 method. […]
To determine the dose of Ptx required for induction of acute hematotoxicity that also permitted spontaneous recovery, fractionated dosing at 10 to 30 mg/kg was given 3 times every other day to groups of mice. After doses greater than 15 mg/kg were found effective, we compared cumulative doses of 60 and 90 mg/kg to untreated mice (n=4 each group). Serial CBCs were obtained from each mouse. Variation was evaluated by one-way ANCOVA and within mouse correlation was included as the covariate. Pair-wise differences were evaluated by Tukey's posttest. Treatment group variation was assessed by two-way ANOVA over the interval followed by between-group comparisons using Bonferroni posttests.

[4] = Ptx 90 mg/kg, MBG 6 mg/kg/day oral or G-CSF 80 ug/kg i.v. once

- Duration of suppression of peripheral blood white blood cell counts below baseline levels (B6D2F1 mice [2]; mouse, in vivo): more than 8 days
- Monocyte counts below baseline at lowest point (B6D2F1 mice [2]; mouse, in vivo): 77.6±13%
- Leukocyte numbers compared to untreated mice (B6D2F1 mice [3]; cumulative Ptx dose 60 mg/kg): fewer leukocytes
- Lymphocyte numbers compared to the untreated group (B6D2F1 mice [3]; cumulative Ptx dose 90 mg/kg): lower over days 3, 4, and 5
- Lymphocytes compared to baseline (B6D2F1 mice [3]; cumulative Ptx dose 90 mg/kg): lower on day 8 compared to baseline
- Neutrophils compared to the untreated group (B6D2F1 mice [3]; cumulative Ptx dose 90 mg/kg (higher dose)): more reduced
Molecule: CC(=O)O[C@H]1C(=O)[C@@]2(C)[C@H]([C@H](OC(=O)c3ccccc3)[C@]3(O)C[C@H](OC(=O)[C@H](O)[C@@H](NC(=O)c4ccccc4)c4ccccc4)C(C)=C1C3(C)C)[C@]1(OC(C)=O)CO[C@@H]1C[C@@H]2O [Ptx, Paclitaxel]
- Unstimulated ROS production on post-day 11 compared to post-day 4 ([1]; mouse, in vivo): unchanged
- ROS response to E. coli on post-day 11 compared to post-day 4 ([1]; p<0.0001): increased
- ROS response to fMLP on post-day 11 compared to post-day 4 ([1]; p<0.0001): decreased
- ROS response to E. coli compared to untreated mice ([1]; post-day 4): lower compared to untreated mice
- Leukocyte levels by post-day 5 compared to earlier post-days (B6D2F1 mice [2]; [4]): Counts improved by post-day 5 and 8 compared to post-day 1
- Lymphocyte recovery time course relative to baseline (B6D2F1 mice [2]; [4]): baseline levels were not achieved, even by post-day 8
- Neutrophil recovery time course (B6D2F1 mice [2]; [4]): Baseline levels were achieved by post-day 8
- Decrease in neutrophil level on post-day 5, between groups (B6D2F1 mice [2]; early recovery period): greater
- Neutrophil counts across all days (B6D2F1 mice [3]; cumulative Ptx dose 60 mg/kg, ANCOVA, no pair-wise comparisons significant): overall drop in neutrophil counts across all days was significant
- Leukocyte numbers compared to untreated mice (B6D2F1 mice [3]; cumulative Ptx dose 90 mg/kg): lower leukocyte numbers on days 3, 4, and 5
- Neutrophil counts compared to baseline (B6D2F1 mice [3]; cumulative Ptx dose 90 mg/kg): counts were significantly lower on days 4 and 5 compared to baseline
- Changes in leukocyte numbers within group (B6D2F1 mice [3]; cumulative Ptx dose 90 mg/kg, one-way ANCOVA): produced significant changes in leukocyte numbers
- Fractionated Ptx dose found effective for induction of acute hematotoxicity (B6D2F1 mice [3]; given 3 times every other day): greater than 15 mg/kg

B1: G-CSF: Neupogen (G-CSF) from Amgen; recombinant human G-CSF (protein, UniProt P09919 31-207, looked up)
Granulocyte …: TPLGPASSLPQSFLLKCLEQVRKIQGDGAALQEKLVSECATYKLCHPEELVLLGHSLGIPWAPLSSCPSQALQLAGCLSQLHSGLFLYQGLLQALEGISPELGPTLDTLQLDVADFATTIWQQMEELGMAPALQPTQGAMPAFASAFQRRAGGVLVASHLQSFLEVSYRVLRHLAQP
modifications: filgrastim, N-terminal methionine
- Decline in leukocytes on post-day 2 (B6D2F1 mice [2]; Ptx 90 mg/kg, 24 hrs after G-CSF injection): not observed
- Effect on Ptx-induced increase of platelet numbers (B6D2F1 mice [2]; mouse, in vivo): also not affected
